These results are taken from paper PMC12668310, “High‐Throughput Synthesis and Screening of a Cyanimide Library Identifies Selective Inhibitors of ISG15‐Specific Protease mUSP18” (Angewandte Chemie (International Ed. in English), 2025).

Each structure is given as a SMILES string. Read-outs that look alike come from different tables or passages of the source.

This assay has as its target T1, mUSP18 (Mus musculus, UniProt Q9WTV6).
T1 construct: (46-368); His-tag (N); made in house
T1 sequence (Q9WTV6 46-368): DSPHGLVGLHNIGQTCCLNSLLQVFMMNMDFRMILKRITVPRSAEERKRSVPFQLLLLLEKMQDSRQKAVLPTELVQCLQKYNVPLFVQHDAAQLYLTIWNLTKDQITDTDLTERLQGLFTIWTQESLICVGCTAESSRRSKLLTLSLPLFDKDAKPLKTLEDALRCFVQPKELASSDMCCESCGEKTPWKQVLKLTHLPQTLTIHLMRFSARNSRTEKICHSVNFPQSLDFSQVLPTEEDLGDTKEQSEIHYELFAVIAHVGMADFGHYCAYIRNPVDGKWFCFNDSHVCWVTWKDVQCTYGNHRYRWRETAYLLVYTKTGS
Put plainly: High-throughput screening, ISG15ct-RhoMP, single dose 1.25 µM. Type of assay: biochemical, murine. The following applies: for inhibition at 1.25 µM: mUSP18 %inhibition; for inhibition of mUSP18 by individual CA's and coupling reagents: screened with and without DIC/HOBt.

[1] abbreviates: carboxylic acid (CA) building block alone, read-out: %inh CA only.
Where [2] appears, read: carboxylic acid (CA) with coupling reagents DIC/HOBT, read-out: %inh CA + DIC/HOBT.

With `O=C(O)c1ccc(N2CCCCCC2)nc1` [CA344], the inhibition at 1.25 µM came to 0.4% under setting [1] and 47% under setting [2].

For the molecule `O=C(O)CC1=NN(c2cccc(Cl)c2)C(=O)C1` [CA345], the inhibition at 1.25 µM runs as follows: under setting [1], 2%; under setting [2], 4.68%.

As to `Cc1oc(-c2cccs2)nc1C(=O)O` [CA346], the inhibition at 1.25 µM by setting is: under setting [1], 8.25%; under setting [2], 12.6%.

As for `O=C(O)c1ccnc(C2CC2)n1` [CA347], the inhibition at 1.25 µM reads like this: under setting [1], -0.62%; under setting [2], 1.21%.

Turning to `Cn1ccnc1CN1CCC(C(=O)O)CC1` [CA348], the inhibition at 1.25 µM under setting [1] is -0.25% and the inhibition at 1.25 µM under setting [2] is -2.62%.

For `O=C(O)c1cc(C2CC2)no1` [CA349], the inhibition at 1.25 µM was -3.22% under setting [1] and 5.85% under setting [2].

As for `O=C(O)C1CCN(C(=O)c2ccc(Cl)s2)CC1` [CA350], the inhibition at 1.25 µM runs as follows: under setting [1], -0.76%; under setting [2], 4.42%.

For `O=C(O)c1ccc(Oc2cccc(Cl)c2)cn1` [CA351], the inhibition at 1.25 µM is 4.42% under setting [1] and 14.8% under setting [2].

Regarding `CC1CN(c2ccc(C(=O)O)cn2)CC(C)O1` (stereo not drawn) [CA352], the inhibition at 1.25 µM by setting is: under setting [1], -4.1%; under setting [2], 13.3%.

Regarding `O=C(O)c1csc(C2CCCCC2)n1` [CA353], the inhibition at 1.25 µM under setting [1] is 14.4% and the inhibition at 1.25 µM under setting [2] came to 1.26%.

As for `O=C(O)c1occc1-c1ccccc1` [CA354], the inhibition at 1.25 µM is, setting by setting: under setting [1], 10.9%; under setting [2], -1.55%.

Regarding `O=C(O)c1ccc(Cn2cccn2)s1` [CA355], the inhibition at 1.25 µM by setting is: under setting [1], 7.41%; under setting [2], -1.93%.

With `O=C(O)C1CC2CCC1O2` (stereo not drawn) [CA356], the inhibition at 1.25 µM under setting [1] was found to be 3.97% and the inhibition at 1.25 µM under setting [2] was -4.92%.

As for `O=C(O)c1ccc(-c2ccccn2)nc1` [CA357], the inhibition at 1.25 µM under setting [1] came out at 4.64% and the inhibition at 1.25 µM under setting [2] was -1.59%.

On to `O=C(O)C1CC2C=CC1O2` (stereo not drawn) [CA358], for which the inhibition at 1.25 µM reads like this: under setting [1], 5.65%; under setting [2], -4.55%.

`O=C(O)C1CC=CCC1C(=O)N1CCOCC1` (stereo not drawn) [CA359]: the inhibition at 1.25 µM reads like this: under setting [1], 4.09%; under setting [2], 0.61%.

As for `O=C(O)c1cccc(N2CCOCC2)n1` [CA360], the inhibition at 1.25 µM is 3.09% under setting [1] and -0.29% under setting [2].

On to `O=C(O)c1cccc(Cn2cncn2)c1` [CA361], for which the inhibition at 1.25 µM is, setting by setting: under setting [1], -2.66%; under setting [2], 0.1%.

With `O=C(O)c1cc(-n2cccc2)ccn1` [CA362], the inhibition at 1.25 µM by setting is: under setting [1], 6.21%; under setting [2], 0.7%.

For `O=C(O)c1ccc(Cn2ccnn2)o1` [CA363], the inhibition at 1.25 µM was 4.39% under setting [1] and -0.81% under setting [2].

With `Cc1onc(C(=O)O)c1CN1CCOCC1` [CA364], the inhibition at 1.25 µM was 5.31% under setting [1] and 1.01% under setting [2].

As to `O=C(O)C1CCN(S(=O)(=O)N2CCCCC2)CC1` [CA365], the inhibition at 1.25 µM under setting [1] was -1.04% and the inhibition at 1.25 µM under setting [2] worked out at 2.17%.

Take `CC1(C(=O)O)CCCCN1C(=O)OCc1ccccc1` (stereo not drawn) [CA366]: the inhibition at 1.25 µM was found to be 0.85% under setting [1] and 3.29% under setting [2].

Turning to `O=C(O)c1sccc1S(=O)(=O)NC1CCCCCC1` [CA367], the inhibition at 1.25 µM turned out to be 1.29% under setting [1] and 5.26% under setting [2].

As for `CCn1nccc1-c1cc(C(=O)O)no1` [CA368], the inhibition at 1.25 µM was 0.71% under setting [1] and 2.58% under setting [2].

On to `O=C(O)c1cccc(C(=O)N2CCCC2)n1` [CA369], for which the inhibition at 1.25 µM runs as follows: under setting [1], 0.72%; under setting [2], 1.39%.

With `O=C(O)[1C@@H]1CCCO[1C@H]1c1ccccc1` [CA370], the inhibition at 1.25 µM by setting is: under setting [1], 2.12%; under setting [2], 9.77%.

Take `O=C(O)C1CCCN(S(=O)(=O)c2cccs2)C1` (stereo not drawn) [CA371]: the inhibition at 1.25 µM came to 1.66% under setting [1] and 2.42% under setting [2].

In the case of `O=C(O)c1ccc(Cn2cc(Cl)c(C(F)(F)F)n2)o1` [CA372], the inhibition at 1.25 µM came out at 5.98% under setting [1] and 8.2% under setting [2].

As for `COc1ccc(C(=O)O)cc1S(=O)(=O)N(C)CCc1cccnc1` [CA373], the inhibition at 1.25 µM was 0.43% under setting [1] and 4.83% under setting [2].

`O=C(O)CC1CCN(c2ccc(C(F)(F)F)cn2)CC1` [CA374]: the inhibition at 1.25 µM runs as follows: under setting [1], 0.78%; under setting [2], 1.18%.

On to `O=C(O)c1cccnc1-n1cncn1` [CA375], for which the inhibition at 1.25 µM is -1.76% under setting [1] and 7.93% under setting [2].

Turning to `CCc1ccc(C(=O)N2CCC(C(=O)O)CC2)o1` [CA376], the inhibition at 1.25 µM reads like this: under setting [1], 6.04%; under setting [2], -8.39%.

Regarding `O=C(O)c1cnn(-c2ccccc2)n1` [CA377], the inhibition at 1.25 µM is 2.74% under setting [1] and -10.8% under setting [2].

As to `Cc1nc(-c2ccsc2)ccc1C(=O)O` [CA378], the inhibition at 1.25 µM is, setting by setting: under setting [1], 1.59%; under setting [2], -10.4%.

In the case of `CN(C)S(=O)(=O)c1ccc(N2CCCCC2)c(C(=O)O)c1` [CA379], the inhibition at 1.25 µM under setting [1] is -2.55% and the inhibition at 1.25 µM under setting [2] is -9.97%.

As to `O=C(O)c1cnc(Cc2ccc(F)cc2)s1` [CA380], the inhibition at 1.25 µM by setting is: under setting [1], -5.77%; under setting [2], -9.23%.

For `Cc1cc(C)cc(N(CCC(=O)O)S(=O)(=O)c2ccc(Cl)cc2)c1` [CA381], the inhibition at 1.25 µM is, setting by setting: under setting [1], 1.09%; under setting [2], -13.7%.

As to `O=C(O)c1csc(CCc2ccccc2)n1` [CA382], the inhibition at 1.25 µM runs as follows: under setting [1], -3.25%; under setting [2], -8.03%.

For the molecule `O=C(O)c1ccc(-c2nnco2)cc1` [CA383], the inhibition at 1.25 µM under setting [1] was -4.57% and the inhibition at 1.25 µM under setting [2] was -8.55%.

For `O=C(O)c1ccccc1Cn1cncn1` [CA384], the inhibition at 1.25 µM reads like this: under setting [1], -2.51%; under setting [2], -6.89%.

As to `O=C(O)Cc1cnn(Cc2ccccc2)c1` [CA385], the inhibition at 1.25 µM reads like this: under setting [1], -2.43%; under setting [2], -10.4%.

In the case of `CN(CC1CC1)c1ccc(C(F)(F)F)cc1C(=O)O` [CA386], the inhibition at 1.25 µM was -2.54% under setting [1] and -7.62% under setting [2].

Regarding `CNS(=O)(=O)c1ccc(-c2ccc(Cl)c(Cl)c2)c(C(=O)O)c1` [CA387], the inhibition at 1.25 µM runs as follows: under setting [1], -2.91%; under setting [2], -4.58%.

With `O=C(O)Cc1csc(N2CCCC2=O)n1` [CA388], the inhibition at 1.25 µM reads like this: under setting [1], -10.4%; under setting [2], -3.35%.

As to `CC1CN(S(=O)(=O)c2ccc(C(=O)O)cc2)CC(C)O1` (stereo not drawn) [CA389], the inhibition at 1.25 µM is -6.73% under setting [1] and -5.95% under setting [2].

Regarding `Cc1ncsc1C(=O)N(C)c1ccccc1C(=O)O` [CA390], the inhibition at 1.25 µM was -7.59% under setting [1] and -4.7% under setting [2].

Regarding `O=C(O)Cc1ccc(-n2cccc2)cc1` [CA391], the “inhibition of mUSP18 by individual CA's and coupling reagents” value is listed as “could inhibit mUSP18”. Moreover, the inhibition at 1.25 µM under setting [1] is -10.9%. The inhibition at 1.25 µM under setting [2] was determined as 63.9%.

With `O=C(O)c1sccc1-n1cccc1` [CA392], the “inhibition of mUSP18 by individual CA's and coupling reagents” value is given as “could inhibit mUSP18”. Also, the inhibition at 1.25 µM under setting [1] was found to be 71.2%. Under setting [2], the inhibition at 1.25 µM is 56.5%.

In the case of `O=C(O)c1coc(C#Cc2ccccc2)c1` [CA393], the inhibition at 1.25 µM is -1.56% under setting [1] and -1.99% under setting [2].
